Like-named read-outs stand apart in the source and are kept apart here.
Columns and labels:
[1] = Determination of the maximum tolerated dose (MTD); assay type: in vivo; details: mouse, in vivo, ip; single intraperitoneal administration, survival over 14 days, B6D2F1/Jico mice
Procedure: (§1) The evaluation of the maximum tolerated dose was carried out on 4- to 6-week-old B6D2F1/Jico mice. […] The value of the MTD (expressed in mg/kg) is determined from observing the survival rate of the animals over a period of 14 days after a single administration of the product under consideration. The change in the weight of the animals is also monitored over this period.

[2] = test system: 12 human tumor lines: U-87MG, U-373MG, SW 1088, T24, J82, HCT-15, LoVo, MCF7, T-47D, A549, A-427 and PC-3; experiment: MTT cytotoxicity test, panel of the 12 human tumor lines; assay type: cell-based; details: read-out: average IC50
Procedure: (§2) The influence of the compounds of formulae I and II on neoplastic cells was evaluated using the MTT calorimetric test. The principle of the MTT test is based on the mitochondrial reduction by metabolically active live cells of the yellow-colored product MTT (3-(4,5-dimethylthiazol-2-yl)-2,5-diphenyltetrazolium bromide) to a blue-colored product, formazan. The amount of formazan thus obtained is directly proportional to the amount of live cells present in the culture well(s). This amount of formazan is measured by spectrophotometry.
(§3) The cell lines are maintained in monolayer culture at 37° C. in stoppered culture dishes containing 25 MM HEPES MEM (Minimum Essential Medium) base medium. This medium, which is suitable for growing a range of varied diploid or primary mammalian cells, is then supplemented: […]
(§4) with a an amount of 5% FCS (Fetal Calf Serum) decomplemented at 56° C. for 1 hour, with 0.6 mg/mL of L-glutamine, with 200 IU/mL of penicillin, with […] of streptomycin, with 0.1 mg/mL of gentamicin.
(§5) The 12 human cancer cell lines used were obtained from the American Type Culture Collection (ATCC, Rockville, Md., USA). These 12 cell lines are:
U-373MG (code ATCC: HTB-17) and U-87MG (code ATCC: HTB-14) which are two glioblastomas, SW1088 (code ATCC: HTB-12) which is an astrocytoma, A549 (code ATCC: CCL-185) and A-427 (code ATCC: HTB-53) which are two non-small-cell lung cancers, HCT-15 (code ATCC: CCL-225) and LoVo (code ATCC: CCL-229) which are two colorectal cancers, T-47D (code ATCC: HTB-133) and MCF7 (code ATCC: HTB-22) which are two breast cancers, J82 (code ATCC: HTB-1) and T24 (code ATCC: HTB-4) which are two bladder cancers, PC-3 (code ATCC: CRL-1435) which is a prostate cancer.
Experimentally: 100 μl of a cell suspension containing 200 000 to 50 000 (depending on the cell type used) cells/mL of culture medium are inoculated in flat-bottomed 96-well multi-well plates and are incubated at 37° C. under an atmosphere comprising 5% CO2 and 70% humidity. After incubating for 24 hours, the culture medium is replaced with 100 μl of fresh medium containing either the various test compounds at concentrations ranging from 10^−5 to 10^−10 M or the solvent used to dissolve the test products (control condition). After incubating for 72 hours under the above conditions, the culture medium is replaced with 100 μl of a yellowish solution of MTT dissolved at a rate of 1 mg/mL in RPMI 1640. The microplates are reincubated for 3 hours at 37° C. and then centrifuged for 10 minutes at 400×g. The yellowish solution of MTT is removed and the blue formazan crystals formed at the cellular level are dissolved in 100 μl of DMSO. The microplates are then agitated for 5 minutes. The intensity of the resulting blue coloration, and thus of the conversion of the yellow MTT product into blue formazan by the cells that are still alive at the end of the experiment is quantified by spectrophotometry using a DYNATECH IMMUNOASSAY SYSTEM machine at wavelengths of 570 nm and 630 nm corresponding, respectively, to the maximum absorption wavelengths of formazan and to the background noise. Software built into the spectrophotometer calculates the average optical density values and also the standard deviation (Std. Dev.) and standard error of mean (SEM) values.
The inhibitory activity on the cell growth of the compounds of formula I and of formula II on the different tumor cell lines was compared with that of the natural product meridine (CRL 8348). All of the compounds of formula I and of formula II show significant inhibitory activity on the cell proliferation of the 12 human tumor lines: U-87MG, U-373MG, SW 1088, T24, J82, HCT-15, LoVo, MCF7, T-47D, A549, A-427 and PC-3 with an inhibitory concentration 50 (IC50) which is between 10^−6 M and 10^−10M, depending on the compounds and the tumor lines tested. By way of example, the values of the concentrations flanking the IC50 which are obtained on the various cell lines are given in table II: […]

U-373MG = experiment: MTT cytotoxicity test, U-373MG; assay type: cell-based; details: Homo sapiens, U373 MG, U-373MG glioblastoma, 72 hours, read-out: concentrations flanking the IC50
Procedure: as §2, §3, §4, §5
(§6) U-373MG (code ATCC: HTB-17) and U-87MG (code ATCC: HTB-14) which are two glioblastomas, Experimentally: 100 μl of a cell suspension containing 200 000 to 50 000 (depending on the cell type used) cells/mL of culture medium are inoculated in flat-bottomed 96-well multi-well plates and are incubated at 37° C. under an atmosphere comprising 5% CO2 and 70% humidity. […] The intensity of the resulting blue coloration, and thus of the conversion of the yellow MTT product into blue formazan by the cells that are still alive at the end of the experiment is quantified by spectrophotometry using a DYNATECH IMMUNOASSAY SYSTEM machine at wavelengths of 570 nm and 630 nm corresponding, respectively, to the maximum absorption wavelengths of formazan and to the background noise. […]

U-87MG = experiment: MTT cytotoxicity test, U-87MG; assay type: cell-based; details: Homo sapiens, U-87MG glioblastoma, 72 hours, read-out: concentrations flanking the IC50
Procedure: as §2, §3, §4, §5, §6

MCF7 = experiment: MTT cytotoxicity test, MCF7; assay type: cell-based; details: Homo sapiens, MCF7 breast cancer, 72 hours, read-out: concentrations flanking the IC50
Procedure: as §2, §3, §4
The 12 human cancer cell lines used were obtained from the American Type Culture Collection (ATCC, Rockville, Md., USA). These 12 cell lines are: […]

B6D2F1/Jico mice = experiment: Determination of the maximum tolerated dose (MTD); assay type: in vivo; details: single intraperitoneal administration, survival over 14 days
Procedure: as §1

Row | Compound | MTD at 14 days [1] [mg/kg] | other results
1 | O=C1c2nccc(Cl)c2C(=O)c2c(-c3ccccc3NC(=O)C(F)(F)F)ccnc21 [CRL 8250, 6-Chloro-4-(2-trifluoroacetamidophenyl)pyrido[3,2-g]-quinoline-5,10-dione] | 20 | 
2 | Nc1ccnc2c1C(=O)c1c(-c3ccccc3[N+](=O)[O-])ccnc1C2=O [CRL 8300, 6-Amino-4-(2-nitrophenyl)pyrido[3,2-g]quinoline-5,10-dione] | 80 | 
3 | O=C1c2nccc([N+](=O)[O-])c2-c2nc3ccccc3c3ccnc1c23 [CRL 8273, 12-Nitrobenzo[b]pyrido[4,3,2-de][1,7]phenanthroline-8-one] | > 80 | 
4 | CN(C)c1ccnc2c1-c1nc3ccccc3c3ccnc(c13)C2=O [CRL 8427, 12-Dimethylaminobenzo[b]pyrido[4,3,2-de][1,7]phenanthroline-8-one] | > 160 | 
5 | O=C1c2nccc(Cl)c2-c2nc3ccccc3c3ccnc1c23 [CRL 8242, 12-Chlorobenzo[b]pyrido[4,3,2-de][1,7]phenanthroline-8-one] | > 160 | 
6 | O=C1c2nccc(Cl)c2C(=O)c2c(-c3ccccc3[N+](=O)[O-])ccnc21 [CRL 8296, 6-Chloro-4-(2-nitrophenyl)pyrido[3,2-g]quinoline-5,10-dione] | 80 | 
7 | COc1ccnc2c1C(=O)c1c(-c3ccccc3[N+](=O)[O-])ccnc1C2=O [CRL 8243, 6-Methoxy-4-(2-nitrophenyl)pyrido[3,2-g]quinoline-5,10-dione] | > 160 | 
8 | O=C1c2nc(O)ccc2-c2nc3ccccc3c3ccnc1c23 [CRL 8432, 10-Hydroxybenzo[b]pyrido[4,3,2-de][1,7]phenanthroline-8-one] | > 160 | 
9 | O=C1c2ncccc2C(=O)c2c(-c3ccccc3NC(=O)C(F)(F)F)ccnc21 [CRL 8277, 4-(2-Trifluoroacetamidophenyl)pyrido[3,2-g]quinoline-5,10-dione] | > 40 | IC50 ([2]; Homo sapiens): 12.5 nM
10 | O=C1c2nc(O)ccc2C(=O)c2c(-c3ccccc3NC(=O)C(F)(F)F)ccnc21 [CRL 8429, 8-Hydroxy-4-(2-trifluoroacetamidophenyl)pyrido[3,2-g]-quinoline-5,10-dione] | 40 | 
11 | COc1ccnc2c1-c1nc3ccccc3c3ccnc(c13)C2=O [CRL 8276, 12-Methoxybenzo[b]pyrido[4,3,2-de][1,7]phenanthroline-8-one] | 80 | IC50 (U-373MG): < 0.1 nM; IC50 (U-87MG): < 0.1 nM; IC50 (MCF7): < 0.1 nM; IC50 ([2]; Homo sapiens): 2.1 nM
12 | CC(=O)Nc1ccnc2c1C(=O)c1c(-c3ccccc3NC(=O)C(F)(F)F)ccnc1C2=O [CRL 8428, 6-(Acetamido)-4-(2-trifluoroacetamidophenyl)pyrido-[3,2-g]quinoline-5,10-dione] | > 160 | 
13 | O=C1c2nccc(O)c2-c2nc3ccccc3c3ccnc1c23 [CRL 8348, meridine, reference compound] | > 160 | IC50 (U-373MG): 100 nM; IC50 ([2]; Homo sapiens): 170 nM
14 | O=C(O)C(F)(F)F.O=C1c2nccc(Br)c2-c2nc3ccccc3c3ccnc1c23 [CRL 8259, 12-Bromobenzo[b]pyrido[4,3,2-de][1,7]phenanthroline-8-one Trifluoroacetate] | 40 | 
15 | O=C(O)C(F)(F)F.O=C1c2nccc([N+](=O)[O-])c2-c2nc3ccccc3c3ccnc1c23 [CRL 8258, 12-Nitrobenzo[b]pyrido[4,3,2-de][1,7]phenanthroline-8-one Trifluoroacetate] | 40 | 
16 | O=C1c2nccc(-c3ccccc3NC(=O)C(F)(F)F)c2C(=O)c2c([N+](=O)[O-])ccnc21 [CRL 8267, 6-Nitro-4-(2-trifluoroacetamidophenyl)pyrido[3,2-g]-quinoline-5,10-dione] | 20 | 
17 | CN(C)c1ccnc2c1C(=O)c1c(-c3ccccc3NC(=O)C(F)(F)F)ccnc1C2=O [CRL 8426, 6-(Dimethylamino)-4-(2-trifluoroacetamidophenyl)pyrido-[3,2-g]quinoline-5,10-dione] | > 160 | 
18 | cystodamine [reference compound] |  | MTD (B6D2F1/Jico mice): >160 mg/kg; IC50 ([2]; calculated from the cytotoxic activity on the 12 tumor lines studied): 100 nM

Reference: patent publication US6583150B1, “Pharmaceutical composition based on polyaromatic compounds” (Laboratorie L. Lafon, priority 1999, dated 2003)
